{"source": "patent US4482486A", "about": "“Analogs of vasopressin” (Ceskoslovenska akademie ved, priority 1982, dated 1984)", "assay_type_in_all_cases": "in vivo", "key": {"nonanaesthesized rat": {"test_system": "nonanaesthesized rat", "assay": "Antidiuretic activity, nonanaesthesized rat", "conditions": "percent of the effect of [8D-argine] deaminovasopressin at the level of threshold efficiency", "protocol": "(§1) The endocrine biological activities (in I.U./mg--International Unit--see \"Handbook of Experimental Pharmacology\", Vol. XXIII: Neurohypophysical hormones and similar polypeptides (B. Berde, Ed), p. 131, Springer-Verlag,Berlin 1968) of the described compounds were determined in rats.\nb = nonanaesthesized rat Activity is expressed in percent of the effect o\n[8D-argine] deaminovasopressin at the level of threshold efficiency"}, "anaesthesized rat": {"test_system": "anaesthesized rat", "assay": "Antidiuretic activity, anaesthesized rat", "protocol": "as §1"}, "rats [1]": {"test_system": "rats", "assay": "Galactogogic endocrine activity in rats", "conditions": "rat", "protocol": "as §1"}, "rats [2]": {"test_system": "rats", "assay": "Pressor endocrine activity in rats", "conditions": "rat", "protocol": "as §1"}, "rats [3]": {"test_system": "rats", "assay": "Uterotonic endocrine activity in rats", "conditions": "rat", "protocol": "as §1"}}}
{"compound": "NC(=O)CC[C@@H]1NC(=O)[C@H](Cc2ccccc2)NC(=O)[C@H](Cc2ccc(O)cc2)NC(=O)[C@@H](N)CSSC[C@@H](C(=O)N2CCC[C@H]2C(=O)N[C@@H](CCCN=C(N)N)C(=O)NCC(N)=O)NC(=O)[C@H](CC(N)=O)NC1=O", "note": "[AVP, [8arginine] vasopressin, reference compound]", "values": [{"measurement": "Antidiuretic activity b", "setting": "nonanaesthesized rat", "value": 20, "unit": "%"}, {"measurement": "Antidiuretic activity a", "setting": "anaesthesized rat", "value": 465, "unit": "I.U./mg"}, {"measurement": "Galactogogic activity", "setting": "rats [1]", "value": 69, "unit": "I.U./mg"}, {"measurement": "Pressor activity", "setting": "rats [2]", "value": 465, "unit": "I.U./mg"}, {"measurement": "Uterotonic activity", "setting": "rats [3]", "value": 17, "unit": "I.U./mg"}]}
{"compound": "Lactam of tyrosyl-phenylalanyl-glutaminyl-asparaginyl-S-(γ-carboxypropyl)cysteinyl-prolyl-D-arginine [Ia]", "values": [{"measurement": "Antidiuretic activity b", "setting": "nonanaesthesized rat", "value": 0.2, "unit": "%"}, {"measurement": "Antidiuretic activity a", "setting": "anaesthesized rat", "value": 0.8, "unit": "I.U./mg"}, {"measurement": "Pressor activity", "setting": "rats [2]", "value": "inhibition"}, {"measurement": "Uterotonic activity", "setting": "rats [3]", "value": 0.09, "unit": "I.U./mg"}]}
{"compound": "[8-D-Arginine, 9-desglycinamide] vasopressin [Ib]", "values": [{"measurement": "Antidiuretic activity b", "setting": "nonanaesthesized rat", "value": 0.4, "unit": "%"}, {"measurement": "Antidiuretic activity a", "setting": "anaesthesized rat", "value": 4.5, "unit": "I.U./mg"}, {"measurement": "Galactogogic activity", "setting": "rats [1]", "value": 0.12, "unit": "I.U./mg"}, {"measurement": "Pressor activity", "setting": "rats [2]", "value": 0.2, "unit": "I.U./mg"}, {"measurement": "Uterotonic activity", "setting": "rats [3]", "value": 0.07, "unit": "I.U./mg"}]}
{"compound": "[8-Ornithine, 9-desglycinamide]vasopressin [Ic]", "values": [{"measurement": "Antidiuretic activity b", "setting": "nonanaesthesized rat", "value": 0.1, "unit": "%"}, {"measurement": "Antidiuretic activity a", "setting": "anaesthesized rat", "value": 0.3, "unit": "I.U./mg"}, {"measurement": "Galactogogic activity", "setting": "rats [1]", "value": 0.02, "unit": "I.U./mg"}, {"measurement": "Pressor activity", "setting": "rats [2]", "value": 0.2, "unit": "I.U./mg"}, {"measurement": "Uterotonic activity", "setting": "rats [3]", "value": 0.09, "unit": "I.U./mg"}]}
